The subject of data set [1] is Mus musculus. The experiment in a line: Inhibition of BACE1 in TASTPM mouse assessed as reduced brain Abeta42 at 250 mg/kg, po bid after 5 days. The format is functional. The following applies: 120 h.
For data set [2], the system named is Mus musculus. The experiment in a line: Inhibition of BACE1 in TASTPM mouse assessed as reduced brain Abeta40 at 250 mg/kg, po bid after 5 days. The format is functional. The note with it: 120 h.
Data set [3] deals with T1, Beta-secretase 2 (Homo sapiens) (UniProt Q9Y5Z0).
T1 sequence (whole entry): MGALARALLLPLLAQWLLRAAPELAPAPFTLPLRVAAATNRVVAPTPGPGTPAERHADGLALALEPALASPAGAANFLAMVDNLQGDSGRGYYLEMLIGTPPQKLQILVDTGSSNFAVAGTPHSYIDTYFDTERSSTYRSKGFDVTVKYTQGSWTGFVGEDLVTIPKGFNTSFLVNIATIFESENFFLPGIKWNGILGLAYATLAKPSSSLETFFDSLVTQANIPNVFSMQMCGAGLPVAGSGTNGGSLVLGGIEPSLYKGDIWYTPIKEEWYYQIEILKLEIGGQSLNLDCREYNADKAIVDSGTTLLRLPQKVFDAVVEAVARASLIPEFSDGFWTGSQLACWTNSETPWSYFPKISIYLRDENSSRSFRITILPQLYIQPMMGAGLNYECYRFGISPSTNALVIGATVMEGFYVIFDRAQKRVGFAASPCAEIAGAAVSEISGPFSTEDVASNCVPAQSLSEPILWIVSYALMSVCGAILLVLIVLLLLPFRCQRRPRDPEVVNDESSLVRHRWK
The experiment in a line: Inhibition of BACE2 (unknown origin).

The target of data set [4] is Beta-secretase 1 (Homo sapiens) (UniProt P56817). The data set can be described thus: Inhibition of BACE1 (unknown origin) in a cell-based assay.
Data set [5] has the same target. The data set can be described thus: Inhibition of human recombinant BACE1 using MBP-C12Swe as substrate by FRET assay.
Data set [6] deals with Canis familiaris. The experiment in a line: Inhibition of BACE1 in beagle dog assessed as reduced CSF Abeta level at 5 mg/kg, po after 3 hrs. The format is functional. The following applies: Canis lupus familiaris.
The nature of data set [7]: Half life in beagle dog at 5 mg/kg, po. The format is ADME, organism-based, Canis lupus familiaris. Also noted: dose 5 mg/kg, route oral. The note with it: in vivo.
The target of data set [8] is Cathepsin D (Homo sapiens) (UniProt P07339). The data set can be described thus: Inhibition of human liver Cathepsin D.
For data set [9], the target named is Beta-secretase 1 (Homo sapiens) (UniProt P56817). The experiment in a line: Inhibition of BACE1 in HEK293 cells. The format is cell-based.
The target of data set [10] is T1, Beta-secretase 2 (Homo sapiens). The data set can be described thus: Inhibition of human BACE2 by mcaFRET assay.
The test system of data set [11] is Homo sapiens. The experiment in a line: Inhibition of BACE1 in alzheimer's disease patient assessed as reduction of plasma Abeta40 level at 90 mg/kg after 24 hrs. The format is functional.
The subject of data set [12] is Brain. The data set can be described thus: Drug uptake in mouse brain at 10 mg/kg, po. The format is ADME, organism-based. Also noted: dose 10 mg/kg, route oral. The following applies: in vivo.
The subject of data set [13] is Homo sapiens. The data set can be described thus: Inhibition of BACE1 in alzheimer's disease patient assessed as reduction of plasma Abeta40 level at 90 mg/kg after 7 hrs. The format is functional.
The species named for another data set is Sus scrofa. The data set can be described thus: Inhibition of pig gastric mucosa pepsin.
Data set [14] has as its system Canis familiaris. The data set can be described thus: Inhibition of BACE1 in beagle dog assessed as reduced plasma Abeta level at 5 mg/kg, po after 4 to 12 hrs. The format is functional. The following applies: Canis lupus familiaris.
The test system of data set [15] is Canis familiaris. The experiment in a line: Inhibition of BACE1 in beagle dog assessed as reduced CSF Abeta level at 5 mg/kg, po after 9 hrs. The format is functional. The following applies: Canis lupus familiaris.
Data set [16] concerns Brain. The experiment in a line: Drug uptake in mouse brain at 30 mg/kg, po. The note with it: in vivo. The format is ADME, organism-based. More on the design: dose 30 mg/kg, route oral.
A short description of data set [17]: Plasma concentration in beagle dog at 5 mg/kg, po after 1 hr. The format is ADME, organism-based, Canis lupus familiaris. Also noted: dose 5 mg/kg, route oral.
Data set [18] deals with Brain. The data set can be described thus: Drug uptake in mouse brain at 100 mg/kg, po. The format is ADME, organism-based. More on the design: dose 100 mg/kg, route oral. The following applies: in vivo.
The target in a further data set is T2, Renin (Homo sapiens) (UniProt P00797).
T2 sequence (whole entry): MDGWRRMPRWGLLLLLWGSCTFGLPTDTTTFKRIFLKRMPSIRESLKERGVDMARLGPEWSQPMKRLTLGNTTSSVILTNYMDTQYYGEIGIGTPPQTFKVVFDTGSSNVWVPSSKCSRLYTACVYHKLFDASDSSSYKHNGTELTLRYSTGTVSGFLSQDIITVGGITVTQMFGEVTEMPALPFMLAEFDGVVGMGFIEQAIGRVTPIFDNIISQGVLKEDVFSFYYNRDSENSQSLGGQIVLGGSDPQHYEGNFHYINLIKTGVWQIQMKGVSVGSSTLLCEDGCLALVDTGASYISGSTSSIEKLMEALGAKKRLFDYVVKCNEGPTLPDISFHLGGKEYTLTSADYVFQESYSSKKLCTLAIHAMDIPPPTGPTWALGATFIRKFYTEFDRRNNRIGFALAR
The data set can be described thus: Inhibition of recombinant renin (unknown origin).

Data set [19] relates to Homo sapiens. The experiment in a line: Inhibition of BACE1 in alzheimer's disease patient assessed as reduction of CSF Abeta level at 35 mg/kg. The format is functional.
In data set [20] the test system is Homo sapiens. The data set can be described thus: Inhibition of BACE1 in alzheimer's disease patient assessed as reduction of CSF Abeta level at 15 mg/kg. The format is functional.

The record followed here is ChEMBL document CHEMBL2396519, “Structure-based design of β-site APP cleaving enzyme 1 (BACE1) inhibitors for the treatment of Alzheimer's disease” (J Med Chem, 2013).

Molecules are shown by their SMILES.

Beta-secretase 1 (Homo sapiens), sequence (P56817 whole entry): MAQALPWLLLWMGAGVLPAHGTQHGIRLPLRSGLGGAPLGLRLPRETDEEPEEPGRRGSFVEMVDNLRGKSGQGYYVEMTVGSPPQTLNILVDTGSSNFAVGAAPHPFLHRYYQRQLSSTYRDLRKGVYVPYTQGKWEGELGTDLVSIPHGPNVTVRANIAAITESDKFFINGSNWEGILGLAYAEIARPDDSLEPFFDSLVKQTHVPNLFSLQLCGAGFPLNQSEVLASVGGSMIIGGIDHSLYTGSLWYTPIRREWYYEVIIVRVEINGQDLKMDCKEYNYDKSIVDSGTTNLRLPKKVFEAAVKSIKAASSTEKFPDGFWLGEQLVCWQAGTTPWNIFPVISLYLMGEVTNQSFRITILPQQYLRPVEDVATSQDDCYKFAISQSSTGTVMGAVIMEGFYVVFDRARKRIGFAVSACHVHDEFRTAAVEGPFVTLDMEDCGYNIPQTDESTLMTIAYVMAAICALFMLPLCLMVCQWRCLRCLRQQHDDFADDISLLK
Cathepsin D (Homo sapiens), sequence (P07339 65-162 limits assumed): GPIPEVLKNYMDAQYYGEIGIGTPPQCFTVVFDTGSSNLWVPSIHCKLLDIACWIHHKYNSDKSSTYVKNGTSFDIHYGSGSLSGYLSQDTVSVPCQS
Cathepsin D (Homo sapiens), sequence (P07339 169-412 limits assumed): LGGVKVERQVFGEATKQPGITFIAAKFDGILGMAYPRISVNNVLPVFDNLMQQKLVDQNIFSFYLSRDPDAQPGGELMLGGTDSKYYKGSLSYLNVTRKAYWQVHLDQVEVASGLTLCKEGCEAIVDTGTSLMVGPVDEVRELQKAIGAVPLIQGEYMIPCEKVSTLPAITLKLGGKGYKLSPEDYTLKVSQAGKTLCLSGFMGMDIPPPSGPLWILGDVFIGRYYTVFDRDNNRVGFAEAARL

With `CCNc1cc(C(=O)N[C@@H](Cc2ccccc2)[C@H](O)CNCc2cccc(C(F)(F)F)c2)cc(N2CCCCS2(=O)=O)c1`, the figures for the inhibition in vivo at 250 mg/kg in the data set on Mus musculus [1] and with Mus musculus [2] were 23% and 18%, respectively.
In the case of `CC(C)C[C@H](NC(=O)[C@@H]1CC(=O)NCCCCCCOC(=O)N[C@@H](C(C)C)C(=O)N1)[C@@H](O)C[C@@H](C)C(=O)N[C@H](C(=O)NCc1ccccc1)C(C)C`, the INH in data set [3] stood at 0.0045 µM; in data set [4] it was 4 µM.
With `C[C@@H](NC(=O)c1cc(C(=O)N[C@@H](Cc2ccccc2)[C@H](O)[C@@H]2NC(C)(C)N(C)C2=O)cc(N(C)S(C)(=O)=O)c1)c1ccc(F)cc1`, the INH in [4] is 18 µM.
On the same count and under the same terms, the figure for `C[C@@H](NC(=O)c1cc(C(=O)N[C@@H](Cc2ccccc2)[C@H](O)[C@@H]2NC(C)(C)N(Cc3ccccc3)C2=O)cc(N(C)S(C)(=O)=O)c1)c1ccc(F)cc1` is 0.03 µM; for `C[C@@H]1N[C@@H]([C@@H](O)[C@H](Cc2ccccc2)NC(=O)c2cc(C(=O)N[C@H](C)c3ccc(F)cc3)cc(N(C)S(C)(=O)=O)c2)C(=O)N1Cc1ccccc1` it is 0.028 µM.
Turning to `C[C@@]1(c2cccc(-c3cncnc3)c2)CCSC(N)=N1`, the INH in data set [5] came to 0.92 µM.
The same measure, in the same setting: as for `Cc1ccc2c(c1)CSC(N)=N2`, the figure is 790 µM.
`C[C@@]1(c2cc(-c3cncnc3)c(F)cc2F)CCSC(N)=N1` [LY-2811376]: the inhibition in vivo at 5 mg/kg was 43% in the data set on Canis familiaris [6], 85% with Canis familiaris [14] and 70% with Canis familiaris [15]. Moreover, the half-life in data set [7] is 6.8 h. For the same molecule, the INH in data set [8] was 15.7 µM; in data set [9] it was 0.3 µM; in data set [10], 2.8 µM; in the data set listed under Sus scrofa, 32.6 µM; in data set [5] it was 0.24 µM; on Renin (Homo sapiens) it was 39 µM. Besides, the inhibition in vivo at 90 mg/kg with Homo sapiens [11] worked out at 64%; in the data set on Homo sapiens [13], 80%. The values for the Drug uptake with Brain [12], in the data set with Brain [16] and in the data set on Brain [18] were 1.46 µg/g, 3.35 µg/g and 12.12 µg/g, respectively. Moreover, the concentration at 1 h in [17] is 1920 ng/mL.
In the case of `NC1=N[C@@]2(c3cc(NC(=O)c4ccc(F)cn4)ccc3F)COC[C@H]2CS1` [LY-2886721], the inhibition in vivo at 35 mg/kg in the data set on Homo sapiens [19] stood at 60%. Moreover, in the data set on Homo sapiens [20], the inhibition in vivo at 15 mg/kg amounted to 30%.

The inhibition in vivo is the change of the read-out against control, counted positive when it falls. What is called half-life is the time needed for the level to fall by half in the phase considered.
